Several values for one entry are separate records, joined by “and”; a condition that tells them apart may be missing. Equal values may be shown once.
Legend:
[1] = system: B16F10 melanoma tumors; assay: In vivo biodistribution of 99mTc complexes in C57B16 mice bearing B16F10 melanoma tumors; details: for mel/blood: melanoma/blood ratio; for mel/liver: melanoma/liver ratio; for mel/lung: melanoma/lung ratio; for mel/spleen: melanoma/spleen ratio
Procedure: To study the tumor uptake of ^99mTc complexes, ^99mTc-Z2-^99mTc-Z4, in vivo biodistribution experiment at 1, 3, 6 hours post intra-venous injection of the ^99mTc-complex were carried out in C57B16 mice bearing B16F10 melanoma tumors. The biodistribution data including melanoma/nontumor (M/NT) ratios for selected organs are summarized in Table 2 as percentage injected dose per gram (% ID/g) (Table 2). […] This is due to washout from no-tumor organs and increased retention in the tumor.

[2] = system: B16 melanoma nodules; assay: In vivo biodistribution and tumor uptake of 99mTc complexes in C57B16 mice with B16 melanoma nodules; details: for mel/blood: melanoma/blood ratio; for mel/liver: melanoma/liver ratio; for mel/lung: melanoma/lung ratio; for mel/spleen: melanoma/spleen ratio
Procedure: The biodistribution data including melanoma/nontumor (M/NT) ratios for selected organs, summarized in Table 1 as percentage injected dose per gram (% ID/g)
To study the tumor uptake of radiolabeled metal complexes, in vivo, biodistribution experiments at 1 h after their administration were carried out in C57B16 male mice with palpable B16 melanoma nodules.

[3] = 3 h postinjection, listed as 99mTc-Z2

## O=C1C[S][99Tc-]23(=[O])[S]CC[N+]2(CCN2CCCCC2)CC[N]13 (stereo not drawn) [Tc-Z2]
[1]; 1 h postinjection
  Eyes: 13.57 ± 2.1 % ID/g
  blood: 0.41 ± 0.08 % ID/g
  brain: 0.13 ± 0.03 % ID/g
  heart: 0.62 ± 0.10 % ID/g
  kidney: 3.50 ± 0.95 % ID/g
  liver: 10.28 ± 2.9 % ID/g
  lung: 1.29 ± 0.36 % ID/g
  melanoma (tumor uptake): 8.52 ± 0.08 % ID/g
  muscle: 0.36 ± 0.06 % ID/g
  spleen: 0.90 ± 0.22 % ID/g
  mel/blood: 16.49 ± 6.7
  mel/liver: 0.64 ± 0.21
  mel/lung: 4.93 ± 1.13
  mel/spleen: 7.94 ± 2.79
[1]; 1 h postinjection, listed as 99mTc-Z2
  melanoma (tumor uptake): 8.52 % ID/g
[1]; 3 h postinjection
  Eyes: 13.55 ± 2.49 % ID/g
  blood: 0.22 ± 0.02 % ID/g
  brain: 0.06 ± 0.01 % ID/g
  heart: 0.22 ± 0.02 % ID/g
  kidney: 1.64 ± 0.15 % ID/g
  liver: 3.32 ± 0.67 % ID/g
  lung: 0.49 ± 0.03 % ID/g
  melanoma (tumor uptake): 7.56 ± 1.69 % ID/g
  muscle: 0.11 ± 0.01 % ID/g
  spleen: 0.93 ± 0.78 % ID/g
  mel/blood: 34.80 ± 10.2
  mel/liver: 2.29 ± 0.30
  mel/lung: 15.48 ± 3.91
  mel/spleen: 17.28 ± 10.2
[1]; [3]
  melanoma (tumor uptake): 7.56 % ID/g
  mel/liver: 2.29
[1]; 6 h postinjection
  Eyes: 8.89 ± 1.55 % ID/g
  blood: 0.12 ± 0.02 % ID/g
  brain: 0.03 ± 0.01 % ID/g
  heart: 0.10 ± 0.02 % ID/g
  kidney: 0.84 ± 0.08 % ID/g
  liver: 3.10 ± 0.31 % ID/g
  lung: 0.31 ± 0.03 % ID/g
  melanoma (tumor uptake): 5.39 ± 0.36 % ID/g
  muscle: 0.04 ± 0.01 % ID/g
  spleen: 1.19 ± 0.6 % ID/g
  mel/blood: 43.14 ± 4.9
  mel/liver: 1.71 ± 0.13
  mel/lung: 16.9 ± 1.41
  mel/spleen: 5.10 ± 2.59
[1]; 6 h postinjection, listed as 99mTc-Z2
  melanoma (tumor uptake): 3.71 % ID/g
[1]; over time
  tumor retention (in words): significant tumor retention

## CCN(CC)CC[N+]12CC[S][99Tc-]13(=[O])[S]CC[N]3C(=O)C2 (stereo not drawn) [[TcOAADT]-C2—N(Et)2, [^99mTcOAADT]-(CH2)2—N(Et2), reference compound]
[2]; 1 h postinjection
  blood: 1.00 ± 0.46 % ID/g
  brain: 0.30 ± 0.10 % ID/g
  heart: 0.82 ± 0.37 % ID/g
  kidney: 5.53 ± 0.81 % ID/g
  liver: 12.7 ± 1.54 % ID/g
  lung: 1.40 ± 0.49 % ID/g
  melanoma (tumor uptake): 7.62 ± 0.62 % ID/g
  muscle: 0.35 ± 0.21 % ID/g
  spleen: 1.83 ± 0.55 % ID/g
  mel/blood: 7.6 ± 0.54
  mel/liver: 0.6 ± 0.09
  mel/lung: 5.4 ± 0.60
  mel/spleen: 4.2 ± 0.58
[2]; 6 h postinjection
  blood: 0.32 ± 0.19 % ID/g
  brain: 0.05 ± 0.02 % ID/g
  heart: 0.11 ± 0.02 % ID/g
  kidney: 1.98 ± 0.21 % ID/g
  liver: 4.08 ± 0.92 % ID/g
  lung: 0.47 ± 0.21 % ID/g
  melanoma (tumor uptake): 3.45 ± 1.2 % ID/g
  muscle: 0.08 ± 0.01 % ID/g
  spleen: 0.34 ± 0.10 % ID/g
  mel/blood: 10.8 ± 1.00
  mel/liver: 0.9 ± 0.35
  mel/lung: 7.3 ± 0.98
  mel/spleen: 10.1 ± 1.11
[2]; over time
  tumor uptake and retention (in words): significant washout from the tumor over time

## CCN(CC)CC[N+]12CC[S][99Tc-]13(=[O])[S]CC(=O)[N]3CC2 (stereo not drawn) [^99mTc-27, Iso-[^99mTcOAADT]-(CH2)2-NEt2)]
[2]; 1 h postinjection
  Eyes: 15.42 ± 2.07 % ID/g
  blood: 1.05 ± 0.19 % ID/g
  brain: 0.24 ± 0.04 % ID/g
  heart: 1.34 ± 0.18 % ID/g
  kidney: 5.33 ± 1.10 % ID/g
  liver: 12.62 ± 1.80 % ID/g
  lung: 6.75 ± 0.57 % ID/g
  melanoma (tumor uptake): 9.61 % ID/g and 9.61 ± 1.02 % ID/g
  muscle: 0.94 ± 0.14 % ID/g
  spleen: 3.00 ± 1.45 % ID/g
  mel/blood: 14.71 and 14.71 ± 2.40
  mel/liver: 0.75 and 0.75 ± 0.11
  mel/lung: 1.43 and 1.43 ± 0.15
  mel/spleen: 3.65 and 3.65 ± 1.19
[2]; 1 h postinjection, listed as Iso-[^99mTcOAADT]-(CH2)2-NEt2)
  melanoma (tumor uptake): 9.61 % ID/g
[2]; 3 h after administration
  in vivo tumor uptake: 8.19 %ID/g
[2]; 6 h after administration
  in vivo tumor uptake: 7.37 %ID/g
[2]; 6 h postinjection
  Eyes: 11.09 ± 0.84 % ID/g
  blood: 0.25 ± 0.02 % ID/g
  brain: 0.05 ± 0.01 % ID/g
  heart: 0.18 ± 0.02 % ID/g
  kidney: 1.11 ± 0.13 % ID/g
  liver: 3.69 ± 0.48 % ID/g
  lung: 1.39 ± 0.41 % ID/g
  melanoma (tumor uptake): 7.05 % ID/g and 7.05 ± 1.23 % ID/g
  muscle: 0.07 ± 0.01 % ID/g
  spleen: 0.78 ± 0.85 % ID/g
  mel/blood: 47.25 and 47.25 ± 7.32
  mel/liver: 2.00 and 2.00 ± 0.23
  mel/lung: 5.87 and 5.87 ± 1.79
  mel/spleen: 13.99 and 13.99 ± 5.17

Source: patent US8747810B2, “Compositions and methods for imaging tissues, organs and tumors” (President and Fellows of Harvard College, priority 2009, dated 2014)
